Source: publication PMC10780819, “Enhanced Cytotoxicity and Antimelanoma Activity of Novel Semisynthetic Derivatives of Betulinic Acid with Indole Conjugation” (Plants, 2023)
“Also recorded” adds a separate entry of the source.

Assays:
[1] = system: murine melanoma B164A5 cells; experiment: Hoechst 33342 nuclear staining; format: cell-based; conditions: 25, 50, 75 μM tested; exposure per Figure 7 legend
Protocol: The procedure was implemented in accordance with the manufacturer’s recommendations. […] A positive control was used to induce apoptosis, using a concentration of 5 µM staurosporine for a duration of 3 h at a temperature of 37 °C. Similarly, for necrosis induction, a concentration of 0.5% Triton X-100 was utilized, with an incubation period of 30 min at 37 °C.

[2] = system: A375 human melanoma cells; design: method as in PMID 27553358; conditions: 72 h incubation; cited from earlier work
[3] = system: human melanoma cell line A375; design: method as in PMID 36986941; conditions: cited from earlier work; for wound healing rate: 50 µM
[4] = in vitro; conditions: human
Protocol: (§1) The effect of testing substances (BI and BA1-BA4) on the survival of human keratinocytes cell line HaCat was also assessed.
(§2) The MTT assay was used to determine the effect of 2,3-indolo-betulinic acid derivatives and betulinic acid on the viability of HaCaT human keratinocyte cell line and B164A5 murine melanoma cells. […] Briefly, 1 × 10^4 cells per well were seeded onto 96-well culture plates and incubated until 70–80% confluence was achieved. Subsequently, the cells were subjected to stimulation for a duration of 72 h using five distinct concentrations (1, 10, 25, 50, and 75 µM) of the test samples. Following a 72 h incubation period, a 10 μL amount of a 5 mg/mL MTT solution obtained from the MTT kit (Sigma-Aldrich, St. Louis, MO, USA) was introduced into each well and subjected to an additional 3 h incubation. The formazan crystals that had been yielded were dissolved by the addition of 100 μL per well of the lysis solution that was included in the MTT kit. B164A5 cells and HaCaT cells were used as a control, and they were only treated with culture medium for 72 h. The spectrophotometric analysis of absorbance was performed at a wavelength of 570 nm using a microplate reader (BioRad, Hercules, CA, USA, xMark Microplate Spectrophotometer).

[5] = system: B164A5 murine melanoma cells; experiment: MTT cell viability assay on B164A5; conditions: for reduction of cellular viability: 1 µM, 72 h, MTT; for viability at 75 µM: read-out: cell viability (growth percentage), 75 µM, 72 h, MTT; for viability at 1 µM: read-out: cell viability, 1 µM, 72 h, MTT
Protocol: as §2

[6] = system: B164A5 cells; experiment: Scratch (wound healing) anti-migratory assay; format: cell-based, murine; conditions: 50 µM, 24 h
Protocol: To evaluate the invasion capability of B164A5 cells after stimulation with the tested compounds (1, 10, 25, and 50 µM), a scratch-based experiment was conducted. In summary, a quantity of 2 × 10^5 cells/well were evenly distributed onto 12-well culture plates until a complete and cohesive layer of cells was achieved. Subsequently, a sterile pipette tip was used to create a void in the center of each well. The cells and cellular debris that were detached subsequent to the process were carefully rinsed using phosphate buffer saline (PBS). Additionally, the cells were subjected to stimulation with the tested compounds. Photographs of the scratched region were captured at two time points: 0 h and 24 h. The images were obtained using an inverted microscope (Olympus IX73, Olympus, Tokyo, Japan) with a DP74 camera (Olympus, Tokyo, Japan) at a magnification of 10×. The cellSense Dimension program was used for the purpose of analyzing cell growth.
The scratch closure rate was calculated using the formula [78]:Scratch closure rate = [(At0 − At)/[…]] × 100, where At0 represents the initial scratch area at time 0 h, and At represents the scratch area after 24 h.

[7] = system: murine melanoma cells B164A5; design: cell viability: dose or concentration left out as unconfirmed; conditions: cited from earlier work
[8] = system: HaCaT cells; conditions: concentrations over 10 μM; cited from earlier work
[9] = system: human melanoma A375 cells; conditions: cited from earlier work; for cytotoxic effect (LDH): 25 µM
[10] = system: HaCaT human keratinocyte cell line; experiment: MTT cell viability assay on HaCaT; conditions: for reduction in cell viability: increasing dosages (25, 50, and 75 μM), 72 h
Protocol: as §1, §2

[11] = system: murine melanoma cells (B164A5); experiment: Neutral Red (NR) cytotoxicity assay; conditions: 75 µM, 72 h
Excerpt: In addition to undertaking the MTT proliferation assessment, the NR technique was used to measure the cytotoxicity rate of the substances being studied. The underlying premise of this methodology depends upon the measurement of live cells using the NR chromophore, which effectively stains the lysosome of living cells. […] Consequently, live cells have the capability to secrete the NR dye when subjected to acidic conditions. Moreover, the intensity of the dye may be directly associated with the quantity of living cells, thereby enabling the assessment of drug-induced cytotoxicity.
In summary, the experimental procedure included subjecting the cells to five different doses (1, 10, 25, 50, and 75 µM) of test samples for a duration of 72 h. Subsequently, a volume of 10 μL of a 0.33% NR solution was introduced into each well, followed by an incubation period of at least 3 h. Following the completion of the incubation time, the medium was extracted, and the cells were promptly rinsed with a 50 μL solution of NR assay fixative. Subsequently, a solubilization step was carried out using a 100 μL solution of NR assay solubilization solution per well.

[12] = system: B164A5 murine melanoma cells; experiment: Lactate dehydrogenase (LDH) release assay; conditions: 75 µM, 72 h
Protocol: The LDH technique is used to evaluate the extracellular release of internal lactate dehydrogenase subsequent to the disruption of the cellular membrane.
The present investigation used the LDH test to assess the cytotoxicity and necrosis-related events that transpired after the exposure of B164A5 murine melanoma cells to the test samples for a duration of 72 h.
The experimental procedure was conducted in accordance with the instructions outlined in the pierce LDH cytotoxicity assay kit, which was supplied by the manufacturer (Thermo Fisher Scientific, Boston, MA, USA).

[13] = system: Lox IMVI melanoma cells; design: method as in doi:10.1134/S1068162018030081; conditions: 100 µM, 48 h; cited from earlier work
[14] = system: SK-MEL-2 cells; design: method as in doi:10.1134/S1068162018030081; conditions: 100 µM, 48 h; cited from earlier work
[15] = MTT cell viability assay on HaCaT; conditions: human, HaCaT keratinocyte cells
Protocol: as §1, §2

| Structure (SMILES) | nuclear changes (apoptosis / necrosis) [1] | wound healing rate [3] | viability at 72 h, 75 µM [4] | reduction of cellular viability [5] | IC50 ([5]; Mus musculus, B16-4A5, 72 h) | viability at 75 µM ([5]; Mus musculus, B16-4A5, 72 h) | wound healing rate (scratch closure rate) [6] | viability at 1 µM ([5]; Mus musculus, B16-4A5, 72 h) | inhibitory activity relative to BA4 ([5]; ratio of IC50 values) | cytotoxic effect (LDH) [9] | reduction in cell viability [10] | other results |
| --- | --- | --- | --- | --- | --- | --- | --- | --- | --- | --- | --- | --- |
| C=C(C)[C@@H]1CC[C@]2(C(=O)NCC(=O)NCC(=O)NCC(=O)O)CC[C@]3(C)[C@H](CC[C@@H]4[C@@]5(C)Cc6c([nH]c7ccccc67)C(C)(C)[C@@H]5CC[C@]43C)[C@@H]12 [BA1, N-(2,3-indolo-betulinoyl)diglycylglycine] | apoptosis features only at a concentration of 75 μM; also recorded: apoptotic characteristics only at a concentration of 75 μM | 35% | ~70% | 27% | 10.34 ± 0.06 µM | 5.7% |  |  |  |  |  | IC50 [2]: 5.7 µM |
| C=C(C)[C@@H]1CC[C@]2(C(=O)NCC(=O)NCC(=O)O)CC[C@]3(C)[C@H](CC[C@@H]4[C@@]5(C)Cc6c([nH]c7ccccc67)C(C)(C)[C@@H]5CC[C@]43C)[C@@H]12 [BA2, N-(2,3-indolo-betulinoyl)glycylglycine] | specific signs of apoptosis (chromatin condensation) at both concentrations of 50 and 75 μM; also recorded: distinct signs of apoptosis, such as chromatin condensation, at both concentrations of 50 and 75 μM | 30% | ~70% | 15% | 9.15 ± 0.05 µM |  | 10.0% | 15.9% | approximately 2.20 fold |  |  | viability at 50 µM ([5]; Mus musculus, B16-4A5, 72 h, read-out: cell viability, 50 µM, 72 h, MTT): 0.41% |
| C=C(C)[C@@H]1CC[C@]2(C(=O)O)CC[C@]3(C)[C@H](CC[C@@H]4[C@@]5(C)CC[C@H](O)C(C)(C)[C@@H]5CC[C@]43C)[C@@H]12 [BI, Betulinic acid] | necrosis only from a concentration of 50 μM; also recorded: necrosis was evident in cells exposed to BA4 and BI only at a concentration of 50 μM |  |  | 32% | 21.14 ± 0.08 µM | 9.6% | 34.9% | 31.3% |  | 21.2% | around 21% | scratch closure rate ([3]; 25 µM): 17.5%; reduction in cell viability ([7]; 25 µM, 48 h of exposure): 40%; cell viability ([7]; 72 h of exposure): 50%; decrease in cell viability [8]: 20%; cell viability diminished by ([10]; concentrations exceeding 10 µM): approximately 20%; reduction in cell viability ([5]; 25 µM, 72 h exposure): 71%; cytotoxicity rate (NR assay) [11]: 63.0%; LDH release (cytotoxic rate) [12]: 52.7% |
| C=C(C)C1CCC2(C(=O)O)CCC3(C)C(CCC4C5(C)Cc6c([nH]c7ccccc67)C(C)(C)C5CCC43C)C12 (stereo not shown) [BA4, 2,3-indolo-betulinic acid] | necrosis only from a concentration of 50 μM; also recorded: necrosis was evident in cells exposed to BA4 and BI only at a concentration of 50 μM |  |  |  | 17.62 ± 0.11 µM | 15% |  |  |  | 43.36% | around 21% | viability percentage [13]: 44%; viability rate [14]: 57%; cytotoxic rate (LDH) ([9]; 75 µM): 32.8%; viability at 72 h, 75 µM [15]: 80.3%; activity relative to parent triterpenoid BI ([5]; ratio of IC50 values): 1.2 times |
| C=C(C)[C@@H]1CC[C@]2(C(=O)NCC(=O)O)CC[C@]3(C)[C@H](CC[C@@H]4[C@@]5(C)Cc6c([nH]c7ccccc67)C(C)(C)[C@@H]5CC[C@]43C)[C@@H]12 [BA3, N-(2,3-indolo-betulinoyl)glycine] | necrosis process being observed from concentration of 25 μM; also recorded: necrotic process being apparent at a dosage of 25 μM |  | ~70% |  | 8.11 ± 0.13 µM | -1.5% | 21.3% | 8.1% | approximately 2.20 fold |  |  |  |
